Experimental data from article PMC3380724 (BMC Neuroscience, 2012).

Experiments:
parental CHO-K1 cells [1] = assay: Intracellular calcium (Cai++) release assay, parental CHO-K1 cells; type: cell-based, Chinese hamster
Description: Changes in Cai^++ levels were determined using the calcium-sensitive dye Calcium 4 (FLIPR No-wash kit, Molecular Devices, Sunnyvale CA, part #R8142). In our hands, the Molecular Devices kit produced results with reasonable signal intensity and reproducibility compared to other commercially available reagents (e.g., Fluo-3 and Fluo-4) without the necessity of dye removal or washing prior to measurements (data not shown). In addition to convenience, the lower number of manipulations required by this kit allowed for more rapid collection of data and decreased the likelihood of cell disturbance or loss.
Cells were plated in serum-replete medium at indicated densities in black-sided, clear bottom 96-well tissue culture plates. […] When plating volume was less than 150 μl, cells were less evenly distributed (visual observation; data not quantified), so we used 150 to 200 μl. […]
Fluorescence (λex = 485 nm, λem = 525 nm) was measured with a FlexStation3 (Molecular Devices). […] The CHO cells remained attached under these conditions; if using other cells lines, attachment should be monitored and reagent addition conditions modified as necessary.
Following addition of test reagent, fluorescence was recorded every 1.7 sec for 90-120 sec. […] Maximum peak height was determined by the FlexStation software (SoftMax Pro 5.2) for each well. […]

h5-HT2AR [2] = target: T1, h5-HT2AR (Homo sapiens, UniProt P28223); assay: Plate immunoassay for pERK, 5-HT2AR-CHO cells; type: cell-based; details: for pERK response after serum-replete preincubation: overnight serum-replete preincubation (Figure 7)
parental CHO-K1 cells [3] = assay: Plate immunoassay for pERK, parental CHO-K1 cells; type: cell-based, Chinese hamster
h5-HT2AR [4] = target: T1, h5-HT2AR; assay: Intracellular calcium (Cai++) release assay, Calcium 4 dye, 5-HT2AR-CHO cells; details: for Cai++ response when dye added into existing growth medium: "Serum Replete" protocol, 1 μM agonist (Figure 2)
unedited h5-HT2CR [5] = target: T2, unedited h5-HT2CR (Homo sapiens, UniProt P28335); assay: cell-based
T2 sequence (P28335 33-458): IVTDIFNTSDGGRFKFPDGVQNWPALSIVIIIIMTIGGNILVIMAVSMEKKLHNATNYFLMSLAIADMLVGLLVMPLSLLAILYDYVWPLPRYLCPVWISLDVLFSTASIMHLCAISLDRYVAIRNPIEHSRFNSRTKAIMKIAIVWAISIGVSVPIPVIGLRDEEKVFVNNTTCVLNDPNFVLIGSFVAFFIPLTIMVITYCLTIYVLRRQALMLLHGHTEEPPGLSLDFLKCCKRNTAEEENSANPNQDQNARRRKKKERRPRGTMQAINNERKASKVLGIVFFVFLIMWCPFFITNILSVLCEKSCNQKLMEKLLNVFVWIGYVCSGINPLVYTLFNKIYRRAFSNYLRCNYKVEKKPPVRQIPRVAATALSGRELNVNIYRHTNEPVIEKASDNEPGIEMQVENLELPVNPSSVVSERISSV

unedited h5-HT2CR [6] = target: T2, unedited h5-HT2CR; assay: Intracellular calcium (Cai++) release assay, Calcium 4 dye, 5-HT2CR-CHO cells
unedited h5-HT2CR [7] = target: T2, unedited h5-HT2CR; details: 5-HT2CR-CHO cells
[8] = EC50 values for agonist-stimulated Cai++ release, 5-HT2CR-CHO cells, Serum-replete overnight preincubation

T1 sequence (P28223 whole entry): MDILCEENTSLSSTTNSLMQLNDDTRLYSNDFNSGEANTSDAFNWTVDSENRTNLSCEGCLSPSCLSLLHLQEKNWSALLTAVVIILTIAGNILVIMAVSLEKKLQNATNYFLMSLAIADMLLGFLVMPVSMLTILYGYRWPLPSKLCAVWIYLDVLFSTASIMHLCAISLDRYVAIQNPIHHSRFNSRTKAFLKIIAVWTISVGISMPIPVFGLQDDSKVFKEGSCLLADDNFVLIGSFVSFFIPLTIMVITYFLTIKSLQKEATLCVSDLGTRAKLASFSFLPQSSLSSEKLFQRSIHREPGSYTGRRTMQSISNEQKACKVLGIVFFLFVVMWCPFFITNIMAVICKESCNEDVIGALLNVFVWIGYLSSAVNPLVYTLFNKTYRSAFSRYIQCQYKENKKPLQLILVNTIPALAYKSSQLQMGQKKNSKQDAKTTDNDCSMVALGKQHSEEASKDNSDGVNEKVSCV

SMILES: NCCc1c[nH]c2ccc(O)cc12 [5-HT, serotonin]
- Cai++ release above baseline (parental CHO-K1 cells [1]; above 10^-6 M 5-HT, in a few experiments, not consistent): < 5%
- Cai++ release (parental CHO-K1 cells [1]; any concentration of 5-HT (Figure 4B inset)): no Cai^++ release
- pERK response after serum-replete preincubation (h5-HT2AR [2]): suppressed
- Time of peak ERK activation (h5-HT2AR [2]; serum-starved overnight, 1 μM 5-HT): 5 min
- pERK response (parental CHO-K1 cells [3]): no detectable response
- Cai++ response when dye added into existing growth medium (h5-HT2AR [4]): dramatically reduced

SMILES: COc1cc(CC(C)N)c(OC)cc1I (stereo not shown) [DOI, 1-[2,5-dimethoxy-4-iodophenyl]-2 aminopropane]
- Concentration giving maximal pERK response (h5-HT2AR [2]; 5 min stimulation): ~1 μM
- pERK response after serum-replete preincubation (h5-HT2AR [2]): suppressed
- EC50 (unedited h5-HT2CR [5]): 19 nM
- Cai++ response after serum preincubation (unedited h5-HT2CR [6]; 5-HT2CR-CHO cells, overnight serum-replete preincubation (Figure 3D)): virtually eliminated
- EC50 (unedited h5-HT2CR [6]; [8]): > 100000 nM
- EC50 (unedited h5-HT2CR [6]; EC50 values for agonist-stimulated Cai++ release, 5-HT2CR-CHO cells, Serum-starved overnight preincubation): 5.4 nM
- Concentration giving maximal pERK response (unedited h5-HT2CR [7]; 5 min stimulation): ~1 μM
- pERK response after serum-replete preincubation (unedited h5-HT2CR [7]; overnight serum-replete preincubation (Figure 7)): suppressed
- Cai++ response when dye added into existing growth medium (h5-HT2AR [4]): completely eliminated
- Cai++ response after serum preincubation (h5-HT2AR [4]; overnight serum-replete preincubation (Figure 3B)): virtually eliminated

SMILES: Clc1cncc(N2CCNCC2)n1 [MK212]
- Cai++ response after serum-replete preincubation (unedited h5-HT2CR [6]; 5-HT2CR-CHO cells preincubated in serum-replete medium): greatly decreased
- EC50 (unedited h5-HT2CR [6]; [8]): > 11000 nM
- Cai++ response magnitude (unedited h5-HT2CR [6]; serum-starved 5-HT2CR-CHO cells): low magnitude
- EC50 values for agonist-stimulated Cai++ release (h5-HT2AR [4]; Serum-replete overnight preincubation): No response
- EC50 values for agonist-stimulated Cai++ release (h5-HT2AR [4]; Serum-starved overnight preincubation): No response
- Cai++ release (h5-HT2AR [4]; any tested concentration up to 10^-4 M): no detectable Cai^++ release

SMILES: COc1ccc(NC(=O)c2ccc(-c3ccc(-c4noc(C)n4)cc3C)cc2)cc1OCCN(C)C [SB216641]
- Effect of 5-HT1BR antagonist on Cai++ concentration response to 5-HT (unedited h5-HT2CR [6]; 5-HT2CR-CHO cells, 10^-6 M SB216641, any concentration of 5-HT): no significant difference

SMILES: Cc1cc2c(cc1Cl)N(C(=O)Nc1ccc(Oc3cccnc3C)nc1)CC2 [SB242084]
- EC50 (unedited h5-HT2CR [6]): 2.3 nM
- Inhibition of 5-HT-stimulated Cai++ response by antagonist (unedited h5-HT2CR [6]; 5-HT2CR-CHO cells, 15 min pretreatment, 1 μM 5-HT): completely inhibited
